According to US10444230B2, “Method and system for determination of molecular interaction parameters” (GE Healthcare Bio-Sciences AB, priority 2003, dated 2019):

How the values were obtained:
[1] = target: T1, Carbonic anhydrase (Sigma C3640) (Bos taurus, UniProt P00921); experiment: SPR (BIACORE S51) sequential injection kinetics, inhibitors binding to immobilized carbonic anhydrase
T1 construct: purchased Sigma C3640
Procedure: Kinetic analysis was performed by injecting inhibitors in 10 mM PBS buffer with 0.005% P20 and 5% DMSO at a flow of 30 μl/min.

Thrombin (Sigma T 1063) = Thrombin (Sigma T 1063) (Homo sapiens, UniProt P00734); details: ligand densities approx. 2300 and 600 RU; 10 mM PBS, 0.005% P20, 5% DMSO, 3.4 mM EDTA

T1 sequence (P00921 whole entry): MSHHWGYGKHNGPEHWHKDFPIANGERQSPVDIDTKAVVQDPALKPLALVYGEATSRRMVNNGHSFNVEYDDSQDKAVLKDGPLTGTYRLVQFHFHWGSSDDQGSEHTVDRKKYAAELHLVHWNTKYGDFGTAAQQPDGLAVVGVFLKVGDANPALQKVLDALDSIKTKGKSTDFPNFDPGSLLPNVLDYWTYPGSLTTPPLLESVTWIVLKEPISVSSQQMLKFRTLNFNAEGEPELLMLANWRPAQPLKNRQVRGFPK

`NS(=O)(=O)c1ccccc1` [benzenesulfonamide] showed a kon ([1]; read-out: ka) of 160000 M⁻¹ s⁻¹ and a kd ([1]; two ligand densities, approx. 2000 and 700 RU, 10 mM PBS, 0.005% P20, 5% DMSO) of 0.14 s⁻¹.

`N=C(N)c1ccc(CNC(=O)[C@@H]2CCN2C(=O)[C@H](NCC(=O)O)C2CCCCC2)cc1` [melagatran] gave a ka (Thrombin (Sigma T 1063)) of 2e+07 M⁻¹ s⁻¹ and a kd (Thrombin (Sigma T 1063)) of 0.018 s⁻¹.
